In US20030235860A1, “Interactions between AR, ER, TR2, and TR4” (priority 1999, published 2003):

T1: TR2 orphan receptor (full length, 603 aa) (UniProt P13056 SEQ:1-603)
T1 chain: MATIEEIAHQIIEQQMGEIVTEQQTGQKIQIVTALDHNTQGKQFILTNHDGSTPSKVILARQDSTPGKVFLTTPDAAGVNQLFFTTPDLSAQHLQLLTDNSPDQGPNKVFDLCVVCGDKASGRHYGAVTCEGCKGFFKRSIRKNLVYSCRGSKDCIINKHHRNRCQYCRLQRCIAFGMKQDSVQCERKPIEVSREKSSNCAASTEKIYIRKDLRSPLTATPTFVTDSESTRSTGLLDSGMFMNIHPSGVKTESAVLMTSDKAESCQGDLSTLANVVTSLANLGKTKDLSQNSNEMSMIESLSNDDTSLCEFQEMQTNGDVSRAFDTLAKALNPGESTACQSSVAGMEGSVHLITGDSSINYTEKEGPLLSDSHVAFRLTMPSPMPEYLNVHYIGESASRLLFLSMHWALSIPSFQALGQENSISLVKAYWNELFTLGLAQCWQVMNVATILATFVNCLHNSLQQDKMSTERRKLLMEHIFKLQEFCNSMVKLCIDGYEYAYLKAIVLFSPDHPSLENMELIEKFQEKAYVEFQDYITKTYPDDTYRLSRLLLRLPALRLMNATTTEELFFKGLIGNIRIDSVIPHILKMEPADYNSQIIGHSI

T2: Estrogen receptor alpha (ER) (Homo sapiens, UniProt P03372 SEQ:1-595)
T2 chain: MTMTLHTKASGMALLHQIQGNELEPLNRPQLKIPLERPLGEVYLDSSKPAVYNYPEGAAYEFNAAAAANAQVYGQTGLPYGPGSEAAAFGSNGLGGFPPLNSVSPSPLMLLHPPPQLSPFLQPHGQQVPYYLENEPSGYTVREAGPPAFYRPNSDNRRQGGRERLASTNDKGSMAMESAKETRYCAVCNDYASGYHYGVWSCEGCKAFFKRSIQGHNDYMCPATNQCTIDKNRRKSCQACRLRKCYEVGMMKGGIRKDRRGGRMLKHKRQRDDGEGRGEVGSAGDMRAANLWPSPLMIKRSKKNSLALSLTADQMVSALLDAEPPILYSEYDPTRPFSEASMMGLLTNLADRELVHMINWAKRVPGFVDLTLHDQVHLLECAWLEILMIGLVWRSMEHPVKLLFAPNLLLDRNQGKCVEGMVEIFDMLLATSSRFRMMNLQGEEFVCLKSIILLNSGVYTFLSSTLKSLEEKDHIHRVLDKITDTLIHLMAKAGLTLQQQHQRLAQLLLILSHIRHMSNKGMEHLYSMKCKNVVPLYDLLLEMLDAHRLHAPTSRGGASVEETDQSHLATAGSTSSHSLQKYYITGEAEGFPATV


What was measured:
PR = experiment: Endogenous PR expression in T47D cells (Northern / Western); assay type: cell-based, human; settings: T47D cells; 10 nM E2, 24 h
Description: The method was used as previously described, Lee & Chang. (1996) J. Biol. Chem. 271. 10405-10412, with some modifications. Briefly. 5 μg of pCMV-TR2 was transiently transfected into T47D cells and lysed in RIPA buffer (10 mM sodium phosphate, pH 7.0. 150 mM NaCL, 2 mM EDT A. 1% (w/v) Nonidet P-40, 0.1% (w/v) SDS. 1% (w/v) sodium deoxycholate) with freshly adding proteinase inhibitors. The soluble protein was quantified using the Bio-Rad Protein Assay reagent (Bio-Rad Laboratories) and 50 μg soluble proteins were loaded onto SDS/10% PAGE and then transferred to Immobion-P transfer membrane (Millipore). After the blocking reaction overnight, the membrane was incubated with […] anti-PR polyclonal antibody (H-190. Santa Cruz) in PBS(−) containing 0.1% Skim milk for 2 h at room temperature. The membrane was washed and then incubated in 15 μCi 125I] of protein-A (DuPont NEN)/30 ml of PBS(−) containing 0.1% Skim milk for 1 h at room temperature. The western blots were autoradiographed and quantitated by using Phosphorlmager.
RNA isolation and Northern blot analysis were performed as previously described. Young, et al., J. Biol. Chem. 273,20877-20885 (1998).
Next it was determined if TR2 could repress the ER endogenous target gene expression. PR was chosen because it is well studied as an E2-ER target gene in T47D cells. Misrahi et al., Biochem. Biophys. Res. Commun. 143, 740-748 (1987). […] Cells were then used for RNA isolation (Northern blot analysis) and lysate protein extraction (Western blot analysis). For RNA analysis, total RNAs were isolated, and Northern blots were performed using [32P] labeled PR cDNA probes. The membrane was autoradiographed. For Protein Western blot analysis, cells lysates were prepared and PR proteins were visualized by radioimmunoblot. The membrane was autoradiographed to Phosphorimager and was quantitated by ImageQuant software.

cyclin D1 = experiment: Western blot of cyclin D1 in MCF-7-TR4 cells; assay type: cell-based; settings: 10 nM E2, Dox
Description: MCF-7-TR4 or MCF-7-pBIG cells were cultured in DMEM containing 10% charcoal dextran-treated FBS for 3 days and then 1×10^6 cells were seeded on 100-mm dishes. […] The lysate protein amount was quantitated by Bradford assay (Bio-Rad, Hercules, Calif.) with bovine serum albumin as a reference standard. One hundred μg protein was loaded and after electrophoresis on 10% SDS-PAGE was transferred onto Immobulin (Milipore, Bedford, Mass.). The membrane was blotted with anti-cyclin D1 rabbit polyclonal Ab (H-295) (Santa Cruz). Alkaline phosphatase conjugated secondary Ab was used.

MCF7-TR2 cells = experiment: Cell cycle profile by flow cytometry, MCF7-TR2 cells; assay type: cell-based; settings: 3 days, E2, or E2 with doxycycline-induced TR2
Description: (A) Growth assays were performed by MTT method as instructed by manufacturer (Sigma). 5×10^3 MCF7-pBIG and MCF7-TR2 cells were seeded in 24-well plates and incubated in RPMI with 10% CD-FCS for 48 h. […] After 3- and 5-day treatment, cells were harvested for MTT assay. Data represents the relative folds of MTT O.D.570 values at day 5 divided by that at day 3. […] Cells were then trypsinized and fixed overnight in 70% Ethanol. After cells were incubated with 1 mg/ml RNase A (Sigma) and propidium iodide (Roche Molecular Biochemicals), the DNA contents of cells were measured by a flow cytometry. (C) Percentage of growth suppression by TR2. MCF7-TR2 cells were seeded at 5×10^3 cells per well in 24-well plates. […] The treatments were changed every two days. The indices of cell growth were determined by MTT assay. The MTT values from cells without doxycycline were set as 100% in each kind of treatment. Values are represented by the percentage of growth suppression from cells with doxycycline to that without doxycycline.

MCF-7-TR4 cells = experiment: MCF-7 cells growth assay (cell counting); assay type: cell-based; settings: MCF-7-TR4 cells (E2 also in MCF-7-pBIG); 10 nM E2; Dox
Description: MCF-7-TR4 and MCF-7-pBIG cells, which were deprived of estrogen by culturing in phenol-free DMEM medium supplement with 10% charcol-stripped FBS for 4 days, were plated at 10^4 cells/well into 24-well plate. […] Cells were trypsinized at the specified time points and counted with a hemocytometer to determine cell density per sample.

[1] = molecular target: T1, TR2 orphan receptor (full length, 603 …); experiment: EMSA; no TR2-ERE band; settings: chain copies: 2; label: 32P
[2] = molecular target: T2, Estrogen receptor alpha (ER); experiment: EMSA; with or without E2; supershifted by C-314; competed by 100-fold cold ERE; decreased by added TR2; settings: chain copies: 2; label: 32P

| Molecule | Induction of PR mRNA expression (PR) | Cyclin D1 expression (cyclin D1) | Cells in G1 (MCF7-TR2 cells) [%] | Cells in S (MCF7-TR2 cells) [%] | Cell growth (cell number) (MCF-7-TR4 cells) | binding result [1] | binding result [2] |
| --- | --- | --- | --- | --- | --- | --- | --- |
| C[C@]12CC[C@@H]3c4ccc(O)cc4CC[C@H]3[C@@H]1CC[C@@H]2O [E2, 17β-estradiol, reference compound] | about 3 fold | induced cyclin D1 expression | 37.4 | 23.6 | stimulated cell growth | – | – |
| complement C3 ERE (dsDNA) DNA 1: AGGTGGCCCTGACCC DNA 2: GGGTCAGGGCCACCT | – | – | – | – | – | no binding | binds |
